Results reported in patent US9090593B2, “Bicyclic compounds as Pim inhibitors” (AMGEN INC., priority 2010, dated 2015).

What was measured:
[1] = target: T1, full length recombinant Pim-2 protein (Homo sapiens, UniProt Q9P1W9); experiment: Pim-2 enzyme assay (HTRF, phosphorylation of biotinylated-BAD (S112) peptide); format: biochemical; details: enzyme assay, Pim-2; read-out: Pim2_IC50
T1 construct: by full length recombinant Pim-1, Pim-2, or Pim-3 protein; hexahistidine tag followed by a thrombin cleavage site (N); made in house; host or cells: Sf9 (baculovirus) or E. coli (pET28)
Summary of the method: (§1)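 HTRF readout (europium anti-pBAD S112 antibody, streptavidin-APC) of biotin-BAD peptide phosphorylation by recombinant full-length Pim-1 or Pim-2, buffer 60 mM Hepes pH 7.0, 2 mM DTT, 0.05% BSA. Enzymes were His6-tagged, from baculovirus/Sf9 or E. coli.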

[2] = target: T2, Pim-2 stably transfected into the U2OS human osteogenic sarcoma line (Homo sapiens, UniProt Q9P1W9); experiment: Pim cell assay, phospho-BAD normalized against total BAD, U2OS stably transfected with Pim-2; format: cell-based; details: U2OS cells stably transfected with Pim-2, phospho-BAD; high dose […]; read-out: Pim2_Cell_IC50; note: high dose 31.6 µM
T2 construct: expressed in transfected cells; host or cells: U2OS human osteogenic sarcoma line
Summary of the method: (§2)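 Read-out is phospho-BAD relative to total BAD, by MSD electrochemiluminescence on lysates, expressed as % phosphoprotein = (2×phospho)/(phospho+total)×100. Engineered U2OS lines carrying stably transfected Pim-1 or Pim-2 received 10-point compound dilutions at 0.3% final DMSO after overnight culture at 37 °C; DMSO-only wells served as high control.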

[3] = target: T3, Pim-1 stably transfected into the U2OS human osteogenic sarcoma line (Homo sapiens, UniProt P11309); experiment: Pim cell assay, phospho-BAD normalized against total BAD, U2OS stably transfected with Pim-1; format: cell-based; details: U2OS cells stably transfected with Pim-1, phospho-BAD; high dose […]; read-out: Pim1_Cell_IC50
T3 construct: expressed in transfected cells; host or cells: U2OS human osteogenic sarcoma line
Summary of the method: as §2

[4] = target: T4, full length recombinant Pim-3 protein (Homo sapiens, UniProt Q86V86); experiment: Pim-3 enzyme assay (HTRF, phosphorylation of biotinylated-BAD (S112) peptide); format: biochemical; details: read-out: Pim3 IC50
T4 construct: by full length recombinant Pim-1, Pim-2, or Pim-3 protein; purchased Millipore (UK)
Summary of the method: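 HTRF read-out, streptavidin-APC plus Eu-labelled anti-phospho-BAD (S112) antibody, measures BAD peptide phosphorylation by full-length recombinant Pim-3. Buffer: 60 mM Hepes pH 7.0, 2 mM DTT, 0.05% BSA; EDTA (3 mM) stop. Percent of control per well, IC50 by 4-parameter logistic fit.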

[5] = target: T5, full length recombinant Pim-1 protein (Homo sapiens, UniProt P11309); experiment: Pim-1 enzyme assay (HTRF, phosphorylation of biotinylated-BAD (S112) peptide); format: biochemical; details: enzyme assay, Pim-1; read-out: Pim_1_IC50
T5 construct: by full length recombinant Pim-1, Pim-2, or Pim-3 protein; hexahistidine tag followed by a thrombin cleavage site (N); made in house; host or cells: Sf9 (baculovirus) or E. coli (pET28)
Summary of the method: as §1

T3 sequence (P11309 whole entry): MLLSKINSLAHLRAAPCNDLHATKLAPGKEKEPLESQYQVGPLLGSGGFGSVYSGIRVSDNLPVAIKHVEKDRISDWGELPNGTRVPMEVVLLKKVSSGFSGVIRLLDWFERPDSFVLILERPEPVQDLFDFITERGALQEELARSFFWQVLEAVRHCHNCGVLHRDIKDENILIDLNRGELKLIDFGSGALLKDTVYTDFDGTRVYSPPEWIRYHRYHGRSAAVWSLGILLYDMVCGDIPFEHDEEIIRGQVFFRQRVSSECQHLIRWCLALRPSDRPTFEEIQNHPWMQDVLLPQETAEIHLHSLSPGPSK
T5 sequence (P11309 whole entry): as above
T2 sequence (Q9P1W9 whole entry): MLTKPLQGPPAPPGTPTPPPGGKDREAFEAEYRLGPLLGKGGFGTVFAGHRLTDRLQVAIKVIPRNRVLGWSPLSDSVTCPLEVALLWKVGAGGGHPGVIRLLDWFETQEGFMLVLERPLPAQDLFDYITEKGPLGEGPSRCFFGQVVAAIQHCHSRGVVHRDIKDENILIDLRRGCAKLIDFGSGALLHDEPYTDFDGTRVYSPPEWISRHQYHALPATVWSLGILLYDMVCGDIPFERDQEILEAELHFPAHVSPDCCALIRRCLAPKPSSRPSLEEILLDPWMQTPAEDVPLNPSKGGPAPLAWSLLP
T1 sequence (Q9P1W9 whole entry): as above

Compound | IC50 [1] [nM] | IC50 [2] [µM] | IC50 [3] [nM] | IC50 [4] [nM] | IC50 [5] [nM]
CCN(CC)C(=O)c1cccc(-c2ccc3[nH]nc(-c4cncc(N5CCC(N)CC5)n4)c3c2)c1F [Example 47, 3-(3-(6-(4-amino-1-piperidinyl)-2-pyrazinyl)-1H-indazol-5-yl)-N,N-diethyl-2-fluorobenzamide] | 290 | > 31.6 | 1940 | 43 | 43
CC(C)Oc1cc(-c2ccc3[nH]nc(-c4cncc(O[C@@H]5CCCNC5)n4)c3c2)ccn1 [Example 143, 5-(2-(1-methylethoxy)-4-pyridinyl)-3-(6-((3R)-3-piperidinyloxy)-2-pyrazinyl)-1H-indazole] | 34 | > 31.6 | 873 | 25 | 5
CN1C(=O)Cc2cc(-c3ccc4[nH]nc(-c5cncc(N6CCC(N)CC6)n5)c4c3)ccc21 [Example 51, 5-(3-(6-(4-amino-1-piperidinyl)-2-pyrazinyl)-1H-indazol-5-yl)-1-methyl-1,3-dihydro-2H-indol-2-one] | 87 | > 31.6 | 1460 | 9 | 13
COc1cc(-c2ccc3[nH]nc(-c4cncc(N5CCC(N)CC5)n4)c3c2)nc(OC)n1 [Example 9, 1-(6-(5-(2,6-dimethoxypyrimidin-4-yl)-1H-indazol-3-yl)pyrazin-2-yl)piperidin-4-amine] | 96 | > 31.6 | 437 | 1 | 4
CN1CCOc2cc(-c3ccc4[nH]nc(-c5cncc(N6CCC(N)CC6)n5)c4c3)cnc21 [Example 58, 1-(6-(5-(4-methyl-3,4-dihydro-2H-pyrido[3,2-b][1,4]oxazin-7-yl)-1H-indazol-3-yl)-2-pyrazinyl)-4-piperidinamine] | 11 | 6.76 | 164 | 1 | 2
NC1CCN(c2cncc(-c3n[nH]c4ccc(-c5ccc6scnc6c5)cc34)n2)CC1 [Example 53, 1-(6-(5-(1,3-benzothiazol-5-yl)-1H-indazol-3-yl)-2-pyrazinyl)-4-piperidinamine] | 17 | 9.93 | 280 | 1 | 2
CCNC(=O)c1ccc(F)c(-c2ccc3[nH]nc(-c4cncc(N5CCC(N)CC5)n4)c3c2)c1 [Example 43, 3-(3-(6-(4-amino-1-piperidinyl)-2-pyrazinyl)-1H-indazol-5-yl)-N-ethyl-4-fluorobenzamide] | 5 | 14.9 | 2520 | 3 | 7
NC1CCN(c2cncc(-c3n[nH]c4ccc(-c5cncnc5)cc34)n2)CC1 [Example 87, 1-(6-(5-(5-pyrimidinyl)-1H-indazol-3-yl)-2-pyrazinyl)-4-piperidinamine] | 43 | > 31.6 | 569 | 5 | 12
NC1CCN(c2cncc(-c3n[nH]c4ccc(-c5cc([N+](=O)[O-])ccc5F)cc34)n2)CC1 [Example 84, 1-(6-(5-(2-fluoro-5-nitrophenyl)-1H-indazol-3-yl)-2-pyrazinyl)-4-piperidinamine] | 45 | > 31.6 | 253 | 4 | 9
c1cc(C2CC2)nc(-c2ccc3[nH]nc(-c4cncc(O[C@@H]5CCCNC5)n4)c3c2)n1 [Example 127, 5-(4-cyclopropyl-2-pyrimidinyl)-3-(6-((3R)-3-piperidinyloxy)-2-pyrazinyl)-1H-indazole] | 67 | > 31.6 | 1020 | 6 | 13
NC1CCN(c2cncc(-c3n[nH]c4ccc(N5CCCC5=O)cc34)n2)CC1 [Example 8, 1-(3-(6-(4-Aminopiperidin-1-yl)pyrazin-2-yl)-1H-indazol-5-yl)pyrrolidin-2-one] | 41 | > 31.6 | 2440 | 6 | 12
